According to US12617757B2, “Compounds and modules for inhibition of pre-miR-21 and their use in treatment of certain cancers” (University of Florida Research Foundation, Incorporated, priority 2019, dated 2026):

Biological target: T1, RNase L (Homo sapiens, UniProt Q05823)
T1 sequence (Q05823 1-741): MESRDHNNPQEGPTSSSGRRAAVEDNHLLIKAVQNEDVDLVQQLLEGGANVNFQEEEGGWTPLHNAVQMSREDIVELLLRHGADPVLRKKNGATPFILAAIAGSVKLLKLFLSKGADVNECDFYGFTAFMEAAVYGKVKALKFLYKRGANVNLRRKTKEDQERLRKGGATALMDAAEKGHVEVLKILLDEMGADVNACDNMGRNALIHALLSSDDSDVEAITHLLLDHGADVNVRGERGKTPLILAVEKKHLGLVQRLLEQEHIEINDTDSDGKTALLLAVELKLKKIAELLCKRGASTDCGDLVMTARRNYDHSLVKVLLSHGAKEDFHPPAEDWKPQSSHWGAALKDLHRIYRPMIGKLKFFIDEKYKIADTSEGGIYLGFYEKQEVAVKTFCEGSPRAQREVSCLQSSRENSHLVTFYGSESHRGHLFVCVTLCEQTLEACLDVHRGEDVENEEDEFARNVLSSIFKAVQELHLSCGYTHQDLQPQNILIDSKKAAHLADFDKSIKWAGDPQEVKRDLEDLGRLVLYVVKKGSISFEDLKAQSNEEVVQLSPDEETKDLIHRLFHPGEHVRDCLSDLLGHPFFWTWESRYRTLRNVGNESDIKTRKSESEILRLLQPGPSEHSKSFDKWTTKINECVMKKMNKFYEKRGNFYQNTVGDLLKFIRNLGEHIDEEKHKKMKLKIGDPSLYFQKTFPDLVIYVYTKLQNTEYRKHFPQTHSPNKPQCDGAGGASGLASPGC
Experiment: In vitro fluorescence recovery assay with model RNA (RNase L activation)
Type: biochemical
Set-up: GST; made in house
Experimental: In Vitro Fluorescent RNA Cleavage. A model RNA hairpin^15 labeled with a 5′ 6-Fluorescein (6FAM) and 3′ Black Hole Quencher (IQ4) (5′ 6FAM-[…]-3′ IQ4; 5′ FAM/3′ BHQ model RNA) (SEQ ID NO: 3) or a miR-21 Hairpin Precursor RNA labeled with a 5′ 6-Fluorescein (6FAM) and 3′ Black Hole Quencher (IQ4) (5′ 6FAM-[…] […]-3′ IQ4; 5′ FAM/3′ BHQ miR-21 Hairpin Precursor RNA) (SEQ ID NO: 4) was purchased from Chemgenes with HPLC purification. Solutions of RNA (100 nM) were folded at 65° C. for 5 min and slowly cooled to room temperature in 1×RNase L Buffer (25 mM Tris-HCl, pH 7.4, 100 mM KCl) without MgCl2, β-mercaptoethanol or ATP. After folding, the RNA was supplemented with 10 mM MgCl2, fresh 7 mM β-mercaptoethanol, and 50 μM of ATP. Next, 100 nM of RNase L, prepared as described previously^22, and various concentrations of screening compounds were prepared in 1×RNase L Buffer and added to the RNA. […] The samples were incubated at room temperature for 60 min after which the fluorescence intensity (Ex: 485 nm, Em: 525 nm) was measured using a SpectraMax M5 plate reader or Biotek FLx800 plate reader. The percentage change in fluorescence intensity, where enhancement of fluorescence intensity was indicative of RNA cleavage, was determined by calculating the percentage change in sample fluorescent signals relative to the untreated fluorescent signal (Fi, %). […]

RNase L activation, dose-responsive measurements: most active activator of RNase L
Compound: CCOC(=O)C1=C(Nc2ccccc2)S/C(=C\c2ccc(OC)c(O)c2)C1=O [Compound 3]
